Assay results as given in ChEMBL document CHEMBL1201862, “PubChem BioAssay data set” (2004).
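Briefly, cells in 96-well plates were exposed to five compound concentrations for 48 h, and endpoints were estimated by linear interpolation. GI50 = concentration required for 50% inhibition of growth.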 Active and inactive are the calls of the source. Rule as the data show it: active = GI50 up to about 1.1 µM and inactive = higher.

Assays:
Assay in all cases: NCI tumour cell line growth inhibition, 48 h
[1] = tested on: 786-0
[2] = tested on: A498
[3] = tested on: A549
[4] = tested on: ACHN
[5] = tested on: BT-549
[6] = tested on: CAKI-1
[7] = tested on: CCRF-CEM
[8] = tested on: COLO 205
[9] = tested on: DU-145
[10] = tested on: EKVX
[11] = tested on: HCC 2998
[12] = tested on: HCT-116
[13] = tested on: HCT-15
[14] = tested on: HL-60
[15] = tested on: HOP-92
[16] = tested on: HT-29
[17] = tested on: Hs-578T
[18] = tested on: IGROV-1
[19] = tested on: K562
[20] = tested on: KM12
[21] = tested on: LOX IMVI
[22] = tested on: M14
[23] = tested on: MCF7
[24] = tested on: MDA-MB-231
[25] = tested on: MDA-MB-435
[26] = tested on: MOLT-4
[27] = tested on: Malme-3M
[28] = tested on: NCI-H226
[29] = tested on: NCI-H23
[30] = tested on: NCI-H460
[31] = tested on: NCI-H522
[32] = tested on: NCI/ADR-RES
[33] = tested on: OVCAR-4
[34] = tested on: OVCAR-5
[35] = tested on: OVCAR-8
[36] = tested on: PC-3
[37] = tested on: RXF 393
[38] = tested on: SF-268
[39] = tested on: SF-295
[40] = tested on: SF-539
[41] = tested on: SK-MEL-28
[42] = tested on: SK-MEL-2
[43] = tested on: SK-MEL-5
[44] = tested on: SK-OV-3
[45] = tested on: SN12C
[46] = tested on: SNB-19
[47] = tested on: SNB-75
[48] = tested on: SR
[49] = tested on: SW-620
[50] = tested on: T47D
[51] = tested on: TK-10
[52] = tested on: U-251
[53] = tested on: UACC-257
[54] = tested on: UACC-62
[55] = tested on: UO-31
[56] = tested on: HOP-62
[57] = tested on: MDA-N
[58] = tested on: OVCAR-3
[59] = tested on: RPMI-8226

Measured: GI50

CC(=O)N1c2ccccc2C23CCN(C)CC4C(C)OCC(C4CC2=O)C13 (stereo not given)
inactive: [1] > 100 µM | [2] > 100 µM | [3] > 100 µM | [4] > 100 µM | [5] > 100 µM | [6] > 100 µM | [7] > 100 µM | [8] > 100 µM | [9] > 100 µM | [10] > 100 µM | [11] > 100 µM | [12] > 100 µM | [14] > 100 µM | [15] > 100 µM | [16] > 100 µM | [17] > 100 µM | [18] > 100 µM | [19] > 100 µM | [20] > 100 µM | [21] > 100 µM | [22] > 100 µM | [23] > 100 µM | [24] > 100 µM | [25] > 100 µM | [26] > 100 µM | [27] > 100 µM | [28] > 100 µM | [29] > 100 µM | [30] > 100 µM | [31] > 100 µM | [32] > 100 µM | [33] > 100 µM | [34] > 100 µM | [35] > 100 µM | [36] > 100 µM | [37] > 100 µM | [38] > 100 µM | [39] > 100 µM | [40] > 100 µM | [41] > 100 µM | [42] > 100 µM | [43] > 100 µM | [44] > 100 µM | [45] > 100 µM | [46] > 100 µM | [47] > 100 µM | [48] > 100 µM | [49] > 100 µM | [50] > 100 µM | [51] > 100 µM | [52] > 100 µM | [53] > 100 µM | [54] > 100 µM | [55] > 100 µM
> 100 µM: [13]

c1ccc([P+](CCN2Cc3ccccc3C2)(c2ccccc2)c2ccccc2)cc1
inactive: [1] 8.17 µM | [2] 18 µM | [3] 4.99 µM | [4] 5.69 µM | [6] 38.3 µM | [7] 2.64 µM | [8] 1.56 µM | [9] 5.87 µM | [10] 3.84 µM | [11] 2.94 µM | [12] 3 µM | [14] 2.77 µM | [56] 8.67 µM | [16] 3.52 µM | [17] 12.5 µM | [19] 2.79 µM | [20] 3.23 µM | [21] 3.84 µM | [22] 5.36 µM | [23] 3.59 µM | [24] 3.94 µM | [25] 3.58 µM | [57] 3.27 µM | [26] 6.44 µM | [27] 8.59 µM | [28] 3.84 µM | [29] 5.46 µM | [30] 5.79 µM | [31] 2.73 µM | [32] 69.5 µM | [58] 3.13 µM | [34] 16.6 µM | [35] 2.32 µM | [36] 4.8 µM | [37] 5.35 µM | [38] 5.77 µM | [39] 6.92 µM | [40] 6.15 µM | [41] 2.74 µM | [42] 2.27 µM | [43] 2.04 µM | [44] 20.7 µM | [45] 4.56 µM | [46] 6.7 µM | [47] 2.12 µM | [48] 4.33 µM | [49] 4.22 µM | [50] 2.4 µM | [51] 10.4 µM | [52] 2.19 µM | [53] 2.35 µM | [54] 2.85 µM | [55] 12.1 µM
12.7 µM: [13]
active: [15] 1.08 µM | [18] 0.368 µM | [59] 0.051 µM

COC(=O)[C@@H]1CN(C(=O)CCc2ccccc2)C(=O)N1
> 100 µM: [13]
inactive: [1] > 100 µM | [2] > 100 µM | [3] > 100 µM | [4] > 100 µM | [6] > 100 µM | [7] > 100 µM | [8] > 100 µM | [9] > 100 µM | [10] > 100 µM | [11] > 100 µM | [12] > 100 µM | [14] > 100 µM | [56] > 100 µM | [15] > 100 µM | [16] > 100 µM | [17] > 100 µM | [18] > 100 µM | [19] > 100 µM | [20] > 100 µM | [21] > 100 µM | [22] > 100 µM | [24] > 100 µM | [25] > 100 µM | [57] > 100 µM | [26] > 100 µM | [27] > 100 µM | [28] > 100 µM | [29] > 100 µM | [30] 86.1 µM | [31] > 100 µM | [32] > 100 µM | [58] > 100 µM | [33] > 100 µM | [34] > 100 µM | [35] > 100 µM | [36] > 100 µM | [59] > 100 µM | [37] > 100 µM | [38] > 100 µM | [39] > 100 µM | [40] > 100 µM | [41] > 100 µM | [42] > 100 µM | [43] > 100 µM | [44] > 100 µM | [45] > 100 µM | [46] > 100 µM | [48] > 100 µM | [49] > 100 µM | [50] > 100 µM | [51] > 100 µM | [52] > 100 µM | [53] > 100 µM | [55] 50.2 µM

COc1cc(Br)c(CC2C3=C(CCN2C(=O)C2CCC2)CC2(CC3)OCCO2)cc1O (stereo not given)
27.9 µM: [13]
inactive: [1] 89.9 µM | [2] 62.2 µM | [3] 57.9 µM | [4] 98.4 µM | [6] 68.4 µM | [7] 52.6 µM | [8] 18.2 µM | [9] > 100 µM | [10] 34.2 µM | [11] 28.8 µM | [12] 72.8 µM | [14] 46.7 µM | [56] > 100 µM | [15] 56.4 µM | [16] 24.2 µM | [17] 33.8 µM | [18] 58.7 µM | [19] 31.6 µM | [20] 50.6 µM | [21] > 100 µM | [22] 62.5 µM | [23] 28.6 µM | [24] 87.1 µM | [25] 23.6 µM | [57] 34.4 µM | [26] 43.3 µM | [27] 65 µM | [28] > 100 µM | [29] 28.8 µM | [30] 50.2 µM | [31] 27.7 µM | [32] 26.5 µM | [58] 33.5 µM | [33] 34.4 µM | [34] > 100 µM | [35] > 100 µM | [36] 46.6 µM | [59] 36.6 µM | [37] 4.84 µM | [38] 83.9 µM | [39] 49.7 µM | [40] > 100 µM | [41] 93.5 µM | [42] > 100 µM | [43] 35.3 µM | [44] 68.2 µM | [45] 84.1 µM | [46] > 100 µM | [47] 17.2 µM | [48] 28.1 µM | [49] 80.2 µM | [50] 29.9 µM | [51] 29.2 µM | [52] > 100 µM | [53] 32.5 µM | [54] 53.8 µM

CCCCCC[C@H]([C@H](C)O)n1cnc2c(N)ncnc21
inactive: [1] > 100 µM | [3] > 100 µM | [4] 61.5 µM | [6] > 100 µM | [7] > 100 µM | [8] > 100 µM | [9] > 100 µM | [10] > 100 µM | [11] > 100 µM | [12] > 100 µM | [14] 50.9 µM | [56] > 100 µM | [15] > 100 µM | [16] > 100 µM | [17] > 100 µM | [18] > 100 µM | [19] > 100 µM | [20] > 100 µM | [21] > 100 µM | [22] > 100 µM | [23] > 100 µM | [24] > 100 µM | [25] > 100 µM | [57] > 100 µM | [26] > 100 µM | [27] > 100 µM | [28] > 100 µM | [29] > 100 µM | [30] > 100 µM | [32] > 100 µM | [58] > 100 µM | [33] > 100 µM | [34] > 100 µM | [35] > 100 µM | [36] > 100 µM | [59] > 100 µM | [37] > 100 µM | [38] > 100 µM | [39] > 100 µM | [40] 57.4 µM | [41] 49.3 µM | [42] > 100 µM | [43] > 100 µM | [44] > 100 µM | [45] > 100 µM | [46] > 100 µM | [47] 62.7 µM | [48] > 100 µM | [49] > 100 µM | [50] > 100 µM | [51] > 100 µM | [52] > 100 µM | [53] > 100 µM | [54] > 100 µM | [55] 91.8 µM
> 100 µM: [13]
